# Experimental data reported in US20130053323A1, “METHODS AND USE RELATED TO HUMANIN AND HUMANIN-LIKE PEPTIDES” (priority 2009, published 2013).
# Columns and labels:
# IL-6 = IL-6 ELISA in culture medium of LPS-treated ATDC5 chondrocytes; assay type: cell-based, mice; conditions: LPS 10 μg/ml 24 hrs; combined Dexa and HNG (10 nM)
# Description: Mice chondrocyte cell line ATDC5 (1×10^6), was cultured in DMEM/Ham's F12 (Invitrogen) supplemented with 5% FCS, 10 μg/ml human transferrin and 3×10^−8 M (30 nM) sodium selenite until confluent (day 6), as previously reported (Owen, Miner et al. 2007). Thereafter, differentiation was induced by the addition of insulin (10 μg/ml; Sigma) and ascorbic acid (20 μg/ml) to the maintenance medium (differentiation medium). Incubation was at 37° C. in a humidified atmosphere of 95% air/5% CO2. The culture medium was changed every second day. On day 6, lipopolysacharide (LPS) 10 μg/ml […] Dexa (1 μM) and HNG (10 nM, S14G) were added in DMEM/Ham's F12 only and cells were incubated further 24 hrs. Next day, the cell culture medium was collected and analyzed for Intraleukin-6 (IL-6) cytokine levels by using commercially available ELISA kit (R&D Systems, Minneapolis, Minn.) according to instructions provided from manufacturer.
# FIG. 2C. […] Therefore, ATDC5 chondrocytes (mice) were cultured and treated with lipopolysacharide (LPS, 10 μg/ml) for 24 hrs to induce inflammation.
# type-X collagen = test: Immunohistochemistry for type-X collagen in tibia growth plate; assay type: in vivo, mice
# Description: Four weeks old mice (female, FVB) were injected with Dexa dissolved in saline (20 μg/mice) subcutaneously in the neck every day for four week. Whereas, HNG (S14G) dissolved in saline (1 μg/mice) was injected intra-peritoneally, 45 minutes prior to the Dexa injection. The vehicle group received saline only. The femur and tibia bones were dissected out and fixed in 4% formalin for 24 hrs, followed by decalcification in 10% EDTA and embedded in paraffin blocks. Five-micrometer-thick sections were prepared from these paraffin blocks. After one wash in dH2O, endogenous peroxidase activity was reduced by incubation in 3% hydrogen peroxide in methanol for 5 min at room temperature. The sections were additionally treated with 5 mg/ml hyaluronidase (Sigma-Aldrich, Inc, Steinheim, Germany) for 30 min at 37° C., then blocked in 3% horse serum and incubated overnight at +4° C. with anti-collagen type-X primary antibody (Quartett GmbH, Berlin, Germany; 1:30). Secondary anti-mouse biotinylated antibody (1:300) was purchased from DakoCytomation A/S (Glostrup, Denmark). Sections were washed in TBS, incubated with avidin-conjugated peroxidase (Vector Laboratories) for 60 min, and the resulting peroxidase activity was detected using a DAB Kit (Vector Laboratories). […] Minimum 4 measurements were taken from each sample and measured blindly. n=4-5/group, **p<0.01. […]
# [1] = system: medulloblastoma (D-283) xenograft; test: Tumor volume in medulloblastoma xenograft in NMRI nude mice; assay type: in vivo, human; conditions: bortezomib + HNG i.p., until day 13
# Description: Male NMRI nu/nu mice (B&K Scanbur, Sweden or Taconic, Denmark) were xenografted at the age of 4 weeks (BW 18-25 g). The mice were anesthetized with 2% fluothane (Zeneca Ltd, Macclesfield, UK) supplemented with 50% N2O in oxygen. Tumor cells (NB (SH-SY5Y; 20×10^6 cells/side) or MB (D-283; 10×10^6 cells/side) in 0.1 ml medium) were implanted s.c. in the hindlegs of the animal using a 23 G needle. Tumors were measured every other day with a digital caliper, starting when they were palpable. At a tumor volume of 0.1 ml or 0.15 ml the animals were randomized into groups (1. Vehicle without tumors; 2. Vehicle with tumors; 3. HNG (S14G; 1 μg/mice); 4. CT (bortezomib; 0.8 mg/kg or 1 mg/kg); 5. HNG (S14G) 1 μg/mice+CT (bortezomib; 0.8 mg/kg or 1 mg/kg), stratified by their bodyweight and treatment started. Treatment regime was the same as in clinical settings with 2 injections/week; 2 weeks treatment (see FIG. 1, Group 1). HNG (S14G) was injected 40 min before the CT (bortezomib) injection. Tumor volume was calculated by the formula 0.44×length×width×width (Wassberg, Pahlman et al. 1997). […] The animal weight and general appearance were recorded every day throughout the experiments. […] After fixation, femur and tibia were measured with digital calipers and decalcified in 5% EDTA and then paraffin embedded. […]
# [2] = system: apoptosis inducing factor (AIF) and BAX; test: Western immunoblotting of pro-apoptotic proteins in C5.18 chondrocytic cell line; assay type: cell-based, rat; conditions: 100 nM HNG/1000 nM bortezomib, 6hrs
# Description: Western immunoblotting to study protein expression was performed in the rat C5.18 chondrocytic cell line after treatment with 1000 nM CT (bortezomib) or 100 nM humanin analog HNG (S14G)/1000 nM CT (bortezomib (Btz)) for 6hrs. […] By adding humanin analog HNG (S14G), the up-regulation and activation of the two pro-apoptotic proteins were suppressed. […] As an internal control the house-keeping gene, GAPDH (35 kDa) was used. The experiment was repeated twice.
substance,measurement,setting,value
S14G-HN (MAPRGFSCLLLLTGEIDLPVKRRA) [HNG (S14G)],effect on the anti-inflammatory effect of Dexa (IL-6 levels),IL-6,did not alter the anti-inflammatory effects of Dexa
same,type-X collagen expression (height),"type-X collagen; Dexa 20 μg/mice + HNG 1 μg/mice every day for four weeks, vs Dexa alone, p<0.01",significantly increased
same,type-X collagen expression (height),"type-X collagen; HNG only, 1 μg/mice every day for four weeks",also increased
same,interference with anti-cancer effect of bortezomib (tumor volume),[1],does not interfere with the anti-cancer effect
same,bortezomib-induced up-regulation and activation of AIF and BAX,[2],suppressed
